Data from ChEMBL document CHEMBL1152277, “Lead optimization of 4-acetylamino-2-(3,5-dimethylpyrazol-1-yl)-6-pyridylpyrimidines as A2A adenosine receptor antagonists for the treatment of Parkinson's disease” (J Med Chem, 2008).
Converted amounts (≈) assume the structure as drawn.

Key:
Rattus norvegicus [1] = test: Inhibition of haloperidol-induced catalepsy in rat at 30 mg/kg, po after 2 hrs; type: functional
Adenosine receptor A2a [2] = biological target: T1, Adenosine receptor A2a (Homo sapiens, UniProt P29274); test: Displacement of [3H][…] from human adenosine A2A receptor expressed in HEK293 cells; type: cell-based
T1 sequence (P29274 whole entry): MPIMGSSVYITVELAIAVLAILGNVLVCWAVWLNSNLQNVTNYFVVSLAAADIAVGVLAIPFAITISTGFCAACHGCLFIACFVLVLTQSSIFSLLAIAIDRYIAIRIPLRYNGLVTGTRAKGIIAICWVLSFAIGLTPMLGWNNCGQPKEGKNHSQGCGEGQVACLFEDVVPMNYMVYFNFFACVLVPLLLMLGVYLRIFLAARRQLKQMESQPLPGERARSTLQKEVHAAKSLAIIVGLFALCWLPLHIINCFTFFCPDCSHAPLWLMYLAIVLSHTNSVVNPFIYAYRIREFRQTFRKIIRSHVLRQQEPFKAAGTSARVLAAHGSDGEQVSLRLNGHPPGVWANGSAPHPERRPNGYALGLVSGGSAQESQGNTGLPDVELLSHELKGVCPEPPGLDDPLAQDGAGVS

[3] = Aqueous solubility in phosphate-buffered saline at pH 7.4; type: physicochemical
Homo sapiens = species on record: Homo sapiens; test: Selectivity ratio of Ki for human adenosine A1 receptor to Ki for human adenosine A2A receptor
Adenosine receptor A2a [4] = biological target: Adenosine receptor A2a (Rattus norvegicus, UniProt P30543); test: Displacement of [3H][…] from rat adenosine A2A receptor expressed in CHO cells; type: cell-based
Chain of Adenosine receptor A2a (Rattus norvegicus, UniProt P30543) (P30543 whole entry): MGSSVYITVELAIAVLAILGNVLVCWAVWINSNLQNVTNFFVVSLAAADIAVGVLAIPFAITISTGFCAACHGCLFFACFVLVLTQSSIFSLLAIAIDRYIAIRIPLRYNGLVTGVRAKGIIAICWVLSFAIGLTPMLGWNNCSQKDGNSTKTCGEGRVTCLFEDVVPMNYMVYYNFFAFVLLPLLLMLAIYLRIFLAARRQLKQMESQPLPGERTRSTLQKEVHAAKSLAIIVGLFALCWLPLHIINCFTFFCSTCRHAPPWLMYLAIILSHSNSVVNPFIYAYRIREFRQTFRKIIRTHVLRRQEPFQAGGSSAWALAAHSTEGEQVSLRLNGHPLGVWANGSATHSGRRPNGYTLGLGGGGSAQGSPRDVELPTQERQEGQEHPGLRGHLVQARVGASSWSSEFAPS

[5] = Drug concentration in rat brain at 10 mg/kg, po after 2 hrs; type: ADME, organism-based; set-up: dose 10 mg/kg, route oral; conditions: read-out: Drug uptake
[6] = Metabolic stability in rat liver microsomes assessed as intrinsic clearance by LC-MS/MS analysis; type: ADME, Microsome
Adenosine receptor A2a [7] = biological target: T1, Adenosine receptor A2a; test: Antagonist activity at human adenosine A2A receptor expressed in CHO cells assessed as inhibition of CGS-21680-induced cAMP production; type: functional, cell-based
[8] = Metabolic stability in human liver microsomes assessed as intrinsic clearance by LC-MS/MS analysis; type: ADME, Microsome
[9] = Plasma concentration in rat at 10 mg/kg, po after 2 hrs; type: ADME, organism-based; set-up: dose 10 mg/kg, route oral
Adenosine receptor A1 = biological target: T2, Adenosine receptor A1 (Homo sapiens, UniProt P30542); test: Displacement of [3H]DPCPX from human adenosine A1 receptor expressed in HEK293 cells; type: cell-based
T2 sequence (P30542 whole entry): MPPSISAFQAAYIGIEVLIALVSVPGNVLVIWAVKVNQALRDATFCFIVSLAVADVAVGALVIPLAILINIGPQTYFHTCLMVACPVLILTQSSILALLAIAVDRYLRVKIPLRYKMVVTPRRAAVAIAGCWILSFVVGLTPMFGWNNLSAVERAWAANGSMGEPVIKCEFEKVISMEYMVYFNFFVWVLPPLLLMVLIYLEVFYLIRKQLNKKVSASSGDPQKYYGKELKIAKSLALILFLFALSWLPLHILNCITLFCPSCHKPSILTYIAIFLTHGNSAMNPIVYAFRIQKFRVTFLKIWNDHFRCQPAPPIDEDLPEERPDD

Cytochrome P450 3A4 = Cytochrome P450 3A4 (Homo sapiens, UniProt P08684)
Chain of Cytochrome P450 3A4 (P08684 whole entry): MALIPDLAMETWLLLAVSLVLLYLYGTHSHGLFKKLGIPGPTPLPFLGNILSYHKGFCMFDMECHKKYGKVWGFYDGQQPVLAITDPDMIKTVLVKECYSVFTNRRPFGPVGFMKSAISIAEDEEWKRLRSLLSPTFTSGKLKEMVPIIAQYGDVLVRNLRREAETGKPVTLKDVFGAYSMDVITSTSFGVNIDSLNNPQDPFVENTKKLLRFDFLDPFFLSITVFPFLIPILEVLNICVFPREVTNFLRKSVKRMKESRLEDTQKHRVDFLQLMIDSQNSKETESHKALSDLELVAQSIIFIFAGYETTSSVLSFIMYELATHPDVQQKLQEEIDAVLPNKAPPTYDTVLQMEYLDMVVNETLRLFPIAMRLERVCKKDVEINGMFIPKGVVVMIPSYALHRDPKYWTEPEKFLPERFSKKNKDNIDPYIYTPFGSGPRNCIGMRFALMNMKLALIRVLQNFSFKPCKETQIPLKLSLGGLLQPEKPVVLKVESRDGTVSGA
Description: Inhibition of CYP3A4 in human liver microsomes by LC-MS/MS analysis

[10] = Drug concentration in rat brain at 30 mg/kg, po after 2 hrs; type: ADME, organism-based; set-up: dose 30 mg/kg, route oral; conditions: read-out: Drug uptake
Rattus norvegicus [11] = species on record: Rattus norvegicus; test: Inhibition of haloperidol-induced catalepsy in rat assessed as minimal effective dose; type: functional; conditions: read-out: MED
[12] = Plasma concentration in rat at 30 mg/kg, po after 2 hrs; type: ADME, organism-based; set-up: dose 30 mg/kg, route oral

Q: Which inhibition in vivo at 30 mg/kg (Rattus norvegicus [1]) does the source give for `CC(=O)Nc1cc(-c2cccc(N3CCC(O)CC3)n2)nc(-n2nc(C)cc2C)n1` here?
A: The inhibition in vivo at 30 mg/kg was 90%.

Q: And the Ki (Adenosine receptor A2a [2])?
A: Its Ki is 0.0019 µM.

Q: And the solubility [3]?
A: Its solubility is 200 µg/mL (≈ 491 µM).

Q: What about the Ratio Ki (Homo sapiens) of the same molecule?
A: Its Ratio Ki is 247.

Q: And the Ki (Adenosine receptor A2a [4])?
A: The Ki was 0.01 µM.

Q: What about the concentration at 2 h [5] of the same molecule?
A: Its concentration at 2 h is 9 ng/g.

Q: What about the CLint scaled [6] of the same molecule?
A: Its CLint scaled is 230 mL/min/kg.

Q: What about the IC50 (Adenosine receptor A2a [7]) of the same molecule?
A: The IC50 was 0.022 µM.

Q: And the CLint scaled [8]?
A: Its CLint scaled is 43 mL/min/kg.

Q: What about the concentration at 2 h [9] of the same molecule?
A: The concentration at 2 h was 16 ng/mL.

Q: And the Ki (Adenosine receptor A1)?
A: The Ki was 0.47 µM.

Q: What about the IC50 (Cytochrome P450 3A4) of the same molecule?
A: Its IC50 is over 20 µM.

Q: What about the concentration at 2 h [10] of the same molecule?
A: The concentration at 2 h was 91 ng/g.

Q: What about the minimal effective dose (Rattus norvegicus [11]) of the same molecule?
A: Its minimal effective dose is 30 mg/kg.

Q: And the concentration at 2 h [12]?
A: The concentration at 2 h was 180 ng/mL.
